{"source": "patent US20210395239A1", "about": "(Hoffmann-La Roche Inc., priority 2018, published 2021)", "key": {"hERG channel": {"target": "T1, hERG channel (Homo sapiens, UniProt Q12809)", "T1 construct": "expressed in transfected cells; host or cells: CHO (Chinese hamster ovary)", "T1 sequence (Q12809 whole entry)": "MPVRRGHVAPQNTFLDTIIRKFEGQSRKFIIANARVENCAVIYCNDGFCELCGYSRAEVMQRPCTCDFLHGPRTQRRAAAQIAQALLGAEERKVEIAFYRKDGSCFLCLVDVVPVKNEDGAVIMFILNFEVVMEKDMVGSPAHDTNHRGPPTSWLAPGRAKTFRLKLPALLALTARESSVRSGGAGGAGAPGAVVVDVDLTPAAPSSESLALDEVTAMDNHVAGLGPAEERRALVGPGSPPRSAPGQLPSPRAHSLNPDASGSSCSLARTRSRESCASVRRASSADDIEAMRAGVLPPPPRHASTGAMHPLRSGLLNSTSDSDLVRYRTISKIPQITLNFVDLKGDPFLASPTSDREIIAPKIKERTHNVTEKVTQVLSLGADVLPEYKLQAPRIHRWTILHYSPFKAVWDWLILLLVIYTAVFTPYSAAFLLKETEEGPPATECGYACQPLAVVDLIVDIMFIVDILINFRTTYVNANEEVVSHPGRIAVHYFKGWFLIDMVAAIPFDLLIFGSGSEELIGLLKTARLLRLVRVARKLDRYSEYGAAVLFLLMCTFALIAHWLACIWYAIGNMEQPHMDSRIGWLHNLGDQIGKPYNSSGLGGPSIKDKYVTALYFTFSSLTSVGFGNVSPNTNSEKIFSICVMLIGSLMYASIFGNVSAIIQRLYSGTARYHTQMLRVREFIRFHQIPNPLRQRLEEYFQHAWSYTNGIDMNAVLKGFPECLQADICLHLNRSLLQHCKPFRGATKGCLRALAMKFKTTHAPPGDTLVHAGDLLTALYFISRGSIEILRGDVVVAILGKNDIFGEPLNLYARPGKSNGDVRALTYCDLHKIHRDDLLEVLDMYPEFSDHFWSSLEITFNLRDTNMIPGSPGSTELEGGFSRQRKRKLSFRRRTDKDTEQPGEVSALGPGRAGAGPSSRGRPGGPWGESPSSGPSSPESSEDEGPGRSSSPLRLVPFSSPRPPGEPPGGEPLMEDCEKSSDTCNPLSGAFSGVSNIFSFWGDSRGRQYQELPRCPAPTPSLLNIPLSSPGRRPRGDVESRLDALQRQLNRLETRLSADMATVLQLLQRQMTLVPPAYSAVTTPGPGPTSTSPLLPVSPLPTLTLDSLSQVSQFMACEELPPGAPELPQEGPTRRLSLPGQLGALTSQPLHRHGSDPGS", "assay": "hERG channel inhibition assay (patch-clamp, CHOhERG cells)", "assay_type": "cell-based", "conditions": "for IC20: human, CHO cells stably expressing hERG (CHOhERG); for IC20 / IC50: patch-clamp, CHOhERG cells; for hERG IC20/TLR7 IC50 / hERG IC20/TLR8 IC50 / hERG IC20/TLR9 IC50: safety ratio", "procedure": "hERG Channel Inhibition Assay:\nThe hERG K^+ channels were cloned in humans and stably expressed in a CHO (Chinese hamster ovary) cell line. CHOhERG cells were used for patch-clamp (voltage-clamp, whole-cell) experiments. Cells were stimulated by a voltage pattern to activate hERG channels and conduct IKhERG currents (rapid delayed outward rectifier potassium current of the hERG channel). After the cells were stabilized for a few minutes, the amplitude and kinetics of IKhERG were recorded at a stimulation frequency of 0.1 Hz, (6 bpm). Thereafter, the test compound was added to the preparation at increasing concentrations. For each concentration, an attempt was made to reach a steady-state effect, usually, this was achieved within 3-10 min at which time the next highest concentration was applied. The amplitude and kinetics of IKhERG are recorded in each concentration of the drug which were compared to the control values (taken as 100%). (references: Redfern W S, Carlsson L, Davis A S, Lynch W G, MacKenzie I, Palethorpe S, Siegl P K, Strang I, Sullivan A T, Wallis R, Camm A J, Hammond T G. 2003; Relationships between preclinical cardiac electrophysiology, clinical QT interval prolongation and torsade de pointes for a broad range of drugs: evidence for a provisional safety margin in drug development. Cardiovasc. Res. 58:32-45, Sanguinetti M C, Tristani-Firouzi M. 2006; hERG potassium channels and cardiac arrhythmia. Nature 440:463-469, Webster R, Leishman D, Walker D. 2002; Towards a drug concentration effect relationship for QT prolongation and torsades de pointes. Curr. Opin. Drug Discov. Devel. 5:116-26)."}, "CYP2C9": {"target": "T2, CYP2C9 (Homo sapiens, UniProt P11712)", "T2 construct": "tissue BD-Gentest 452117; host or cells: human liver microsomes", "T2 sequence (P11712 whole entry)": "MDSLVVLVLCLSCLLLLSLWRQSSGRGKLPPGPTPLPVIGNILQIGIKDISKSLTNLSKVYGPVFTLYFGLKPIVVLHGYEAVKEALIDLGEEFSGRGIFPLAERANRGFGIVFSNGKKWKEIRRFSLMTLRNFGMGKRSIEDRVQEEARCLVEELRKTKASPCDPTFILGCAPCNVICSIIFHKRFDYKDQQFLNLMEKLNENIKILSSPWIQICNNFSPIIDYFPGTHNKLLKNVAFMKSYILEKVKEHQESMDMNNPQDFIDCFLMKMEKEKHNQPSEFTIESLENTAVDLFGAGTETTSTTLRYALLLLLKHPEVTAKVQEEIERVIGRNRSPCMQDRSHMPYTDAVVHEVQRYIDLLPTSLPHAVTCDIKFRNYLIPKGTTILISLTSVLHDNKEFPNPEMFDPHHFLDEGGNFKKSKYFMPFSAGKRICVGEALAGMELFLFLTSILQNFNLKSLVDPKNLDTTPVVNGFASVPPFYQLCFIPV", "assay": "CYP inhibition assay in human liver microsome, CYP2C9", "assay_type": "in vitro ADME", "conditions": "human, human liver microsomes, probe diclofenac 5 μM, substrate diclofenac 5 μM, first value of 2C9/2D6/3A4", "procedure": "This is a high throughput screening assay used for assessment of reversible inhibition of CYP2C9, CYP2D6, and CYP3A4 activity of test compounds in human liver microsome (HLM) in early discovery stage.\n10 mM DMSO stock solutions of test compounds were diluted in DMSO to generate 2 mM intermediate stock solution. 250 nL, of intermediate stock solution were transferred in duplicate into 3 separate 384 well microtitre plates (assay-ready plates). A mixture of HLM and each substrate was made up. 45 μL of HLM substrate mix was then transferred to each well of an assay ready plate and mixed. The negative (solvent) and positive controls (standard inhibitor for each CYP) were included in each assay ready plate. The assay ready plate was warmed to 37° C. in an incubator over 10 minutes. 5 μL pre-warmed NADPH regenerating system was added to each incubation well to start the reaction. Final incubation volume was 50 μL. The assay plate then was placed back in the 37° C. incubator. After incubation (10 minutes for CYP2D6) for 5 minutes, incubates were quenched by addition of 50 μL 100% acetonitrile containing internal standards (400 ng/mL 13C6-4′-OH-Diclofenac, 20 ng/mL D3-Dextrorphan and 20 ng/mL D4-1′OH-Midazolam). The supernatants were collected for RapidFire/MS/MS analysis.\nRapidFire online solid phase extraction/sample injection system (Agilent) coupled with API4000 triple quadrupole mass spectrometer (AB Sciex) were used for sample analysis. The mobile phase composed of acetonitrile and water supplemented with 0.1% formic acid. A C4 solid phase extraction cartridge is used for sample separation. MS detection is achieved in positive ion MRM mode.\nPeak areas for substrate, metabolite and internal standard are determined using the RapidFire integrator software (version 3.6.12009.12296). Peak area ratios (PAR) of metabolite and internal standard (stable-labelled metabolite) are then calculated. The measurement window for each experiment is then defined:\nPAR (0% activity)=average PAR for all incubations containing concentrated inhibitor; Par (100% activity)=average PAR for all incubations containing no inhibitor (DMSO controls); % Activity (test inhibitor)=[PAR (test inhibitor)−PAR (0% activity)]/[PAR (100% activity)−PAR (0% activity)]; % Inhibition (test inhibitor)=100-% Activity (test inhibitor)."}}, "data": [{"smiles": "CO[C@H]1CN(c2nccc(N3CCN(C[C@H]4CN(c5ccc(C#N)c6nccnc56)C[C@@H](C)O4)CC3)n2)C[C@@H]1N", "note": "[Example 99, 8-[(2S,6R)-2-[[4-[2-[(3S,4S)-3-amino-4-methoxy-pyrrolidin-1-yl]pyrimidin-4-yl]piperazin-1-yl]methyl]-6-methyl-morpholin-4-yl]quinoxaline-5-carbonitrile]", "values": [{"measurement": "IC20", "setting": "hERG channel", "value": 9, "unit": "µM"}, {"measurement": "IC50", "setting": "hERG channel", "value": "> 20", "unit": "µM"}, {"measurement": "hERG IC20/TLR7 IC50", "setting": "hERG channel", "value": 818}, {"measurement": "hERG IC20/TLR8 IC50", "setting": "hERG channel", "value": 9000}, {"measurement": "hERG IC20/TLR9 IC50", "setting": "hERG channel", "value": 142}]}, {"smiles": "C[C@@H]1CN(c2ccc(C#N)c3nccnc23)C[C@H](CN2CCN(c3nccc(N4C[C@@H](N)[C@H](F)C4)n3)CC2)O1", "note": "[Example 119, 8-[(2S,6R)-2-[[4-[4-[(3R,4R)-3-amino-4-fluoro-pyrrolidin-1-yl]pyrimidin-2-yl]piperazin-1-yl]methyl]-6-methyl-morpholin-4-yl]quinoxaline-5-carbonitrile]", "values": [{"measurement": "inhibition at 5 min, 10 µM", "setting": "CYP2C9", "value": -12.5, "unit": "%"}]}, {"smiles": "C[C@@H]1CN(c2ccc(C#N)n3ncc(F)c23)C[C@H](CN2CC(c3ccc(N4C[C@@H]5C[C@H]4CN5)nc3)C2)O1", "note": "[Example 165, 4-[(2S,6R)-2-[[3-[6-[(1S,4S)-2,5-diazabicyclo[2.2.1]heptan-2-yl]-3-pyridyl]azetidin-1-yl]methyl]-6-methyl-morpholin-4-yl]-3-fluoro-pyrazolo[1,5-a]pyridine-7-carbonitrile]", "values": [{"measurement": "inhibition at 5 min, 10 µM", "setting": "CYP2C9", "value": -8.5, "unit": "%"}]}, {"smiles": "C[C@@H]1CN(c2ccc(C#N)c3ncccc23)C[C@H](CN2CC(c3cccc(N4CCNCC4)c3)C2)O1", "note": "[Example 4, 5-[(2R,6S)-2-methyl-6-[[3-(3-piperazin-1-ylphenyl)azetidin-1-yl]methyl]morpholin-4-yl]quinoline-8-carbonitrile]", "values": [{"measurement": "inhibition at 5 min, 10 µM", "setting": "CYP2C9", "value": 5.5, "unit": "%"}]}, {"smiles": "C[C@@H]1CN(c2ccc(C#N)n3ncc(F)c23)C[C@H](CN2CC(c3ccc(N4CC(C)(N)C4)cc3)C2)O1", "note": "[Example 160, 4-[(2S,6R)-2-[[3-[4-(3-amino-3-methyl-azetidin-1-yl)phenyl]azetidin-1-yl]methyl]-6-methyl-morpholin-4-yl]-3-fluoro-pyrazolo[1,5-a]pyridine-7-carbonitrile]", "values": [{"measurement": "inhibition at 5 min, 10 µM", "setting": "CYP2C9", "value": -1.5, "unit": "%"}]}, {"smiles": "CO[C@@H]1CN(c2ccc(C3CN(C[C@H]4CN(c5ccc(C#N)n6ncc(F)c56)C[C@@H](C)O4)C3)cn2)C[C@H]1N", "note": "[Example 164, 4-[(2S,6R)-2-[[3-[6-[(3R,4R)-3-amino-4-methoxy-pyrrolidin-1-yl]-3-pyridyl]azetidin-1-yl]methyl]-6-methyl-morpholin-4-yl]-3-fluoro-pyrazolo[1,5-a]pyridine-7-carbonitrile]", "values": [{"measurement": "inhibition at 5 min, 10 µM", "setting": "CYP2C9", "value": -1, "unit": "%"}]}, {"smiles": "C[C@@H]1CN(c2ccc(C#N)n3ncc(F)c23)C[C@H](CN2CC(c3ccc(N4CC(C)(N)C4)nc3)C2)O1", "note": "[Example 158, 4-[(2S,6R)-2-[[3-[6-(3-amino-3-methyl-azetidin-1-yl)-3-pyridyl]azetidin-1-yl]methyl]-6-methyl-morpholin-4-yl]-3-fluoro-pyrazolo[1,5-a]pyridine-7-carbonitrile]", "values": [{"measurement": "inhibition at 5 min, 10 µM", "setting": "CYP2C9", "value": -5.5, "unit": "%"}]}, {"smiles": "C[C@@H]1CN(c2ccc(C#N)c3ncccc23)C[C@H](CN2CCC(c3cccc(C4CCNCC4)c3)CC2)O1", "note": "[Example 2, 5-[(2R,6S)-2-methyl-6-[[4-[3-(4-piperidyl)phenyl]-1-piperidyl]methyl]morpholin-4-yl]quinoline-8-carbonitrile]", "values": [{"measurement": "inhibition at 5 min, 10 µM", "setting": "CYP2C9", "value": 2, "unit": "%"}]}, {"smiles": "C[C@@H]1CN(c2ccc(C#N)c3ncccc23)C[C@H](CN2CCN(c3ccnc(N4C[C@H](N)[C@@H](F)C4)n3)CC2)O1", "note": "[Example 110, 5-[(2S,6R)-2-[[4-[2-[(3S,4S)-3-amino-4-fluoro-pyrrolidin-1-yl]pyrimidin-4-yl]piperazin-1-yl]methyl]-6-methyl-morpholin-4-yl]quinoline-8-carbonitrile]", "values": [{"measurement": "inhibition at 5 min, 10 µM", "setting": "CYP2C9", "value": 22, "unit": "%"}]}, {"smiles": "[2H]c1ccc2c(N3C[C@H](CN4CCN(c5ccc(N6CC7(CNCCO7)C6)nc5)CC4)O[C@H](C)C3)ccc(C#N)c2n1", "note": "[Example 152, 2-deuterio-5-[(2R,6S)-2-methyl-6-[[4-[6-(5-oxa-2,8-diazaspiro[3.5]nonan-2-yl)-3-pyridyl]piperazin-1-yl]methyl]morpholin-4-yl]quinoline-8-carbonitrile]", "values": [{"measurement": "inhibition at 5 min, 10 µM", "setting": "CYP2C9", "value": -1, "unit": "%"}]}, {"smiles": "[2H]c1ccc2c(N3C[C@H](CN4CCN(c5nc(C)cc(N6C[C@H](OC)[C@@H](N)C6)n5)CC4)O[C@H](C)C3)ccc(C#N)c2n1", "note": "[Example 134, 5-[(2S,6R)-2-[[4-[4-[(3S,4S)-3-amino-4-methoxy-pyrrolidin-1-yl]-6-methyl-pyrimidin-2-yl]piperazin-1-yl]methyl]-6-methyl-morpholin-4-yl]-2-deuterio-quinoline-8-carbonitrile]", "values": [{"measurement": "inhibition at 5 min, 10 µM", "setting": "CYP2C9", "value": 44.5, "unit": "%"}]}, {"smiles": "C[C@@H]1CN(c2ccc(C#N)c3nccnc23)C[C@H](CN2CCN(c3ccnc(N4C[C@H](N)[C@@H](F)C4)n3)CC2)O1", "note": "[Example 107, 8-[(2S,6R)-2-[[4-[2-[(3S,4S)-3-amino-4-fluoro-pyrrolidin-1-yl]pyrimidin-4-yl]piperazin-1-yl]methyl]-6-methyl-morpholin-4-yl]quinoxaline-5-carbonitrile]", "values": [{"measurement": "inhibition at 5 min, 10 µM", "setting": "CYP2C9", "value": 19.5, "unit": "%"}]}, {"smiles": "C[C@@H]1CN(c2ccc(C#N)n3nccc23)C[C@H](CN2CC(c3ccc(N4CC(C)(N)C4)cc3)C2)O1", "note": "[Example 163, 4-[(2S,6R)-2-[[3-[4-(3-amino-3-methyl-azetidin-1-yl)phenyl]azetidin-1-yl]methyl]-6-methyl-morpholin-4-yl]pyrazolo[1,5-a]pyridine-7-carbonitrile]", "values": [{"measurement": "inhibition at 5 min, 10 µM", "setting": "CYP2C9", "value": -4.5, "unit": "%"}]}, {"smiles": "C[C@@H]1CN(c2ccc(C#N)c3nccnc23)C[C@H](CN2CCN(c3nccc(N4CC(N)C4)n3)CC2)O1", "note": "[Example 118, 8-[(2S,6R)-2-[[4-[4-(3-aminoazetidin-1-yl)pyrimidin-2-yl]piperazin-1-yl]methyl]-6-methyl-morpholin-4-yl]quinoxaline-5-carbonitrile]", "values": [{"measurement": "IC20", "setting": "hERG channel", "value": "> 10", "unit": "µM"}, {"measurement": "IC50", "setting": "hERG channel", "value": "> 20", "unit": "µM"}, {"measurement": "hERG IC20/TLR7 IC50", "setting": "hERG channel", "value": ">2500"}, {"measurement": "hERG IC20/TLR8 IC50", "setting": "hERG channel", "value": ">10000"}, {"measurement": "hERG IC20/TLR9 IC50", "setting": "hERG channel", "value": ">196"}]}, {"smiles": "Cc1ccc(N2C[C@H](CN3CCN(c4ccnc(N5CCNCC5)n4)CC3)O[C@H](C)C2)c2nccnc12", "note": "[Example 117, (2R,6S)-2-methyl-4-(8-methylquinoxalin-5-yl)-6-[[4-(2-piperazin-1-ylpyrimidin-4-yl)piperazin-1-yl]methyl]morpholine]", "values": [{"measurement": "inhibition at 5 min, 10 µM", "setting": "CYP2C9", "value": 8.5, "unit": "%"}]}, {"smiles": "CO[C@@H]1CN(c2nccc(N3CCN(C[C@H]4CN(c5ccc(C#N)c6nccnc56)C[C@@H](C)O4)CC3)n2)C[C@H]1N", "note": "[Example 98, 8-[(2S,6R)-2-[[4-[2-[(3R,4R)-3-amino-4-methoxy-pyrrolidin-1-yl]pyrimidin-4-yl]piperazin-1-yl]methyl]-6-methyl-morpholin-4-yl]quinoxaline-5-carbonitrile]", "values": [{"measurement": "IC20", "setting": "hERG channel", "value": "> 10", "unit": "µM"}, {"measurement": "IC50", "setting": "hERG channel", "value": "> 20", "unit": "µM"}, {"measurement": "hERG IC20/TLR7 IC50", "setting": "hERG channel", "value": ">1666"}, {"measurement": "hERG IC20/TLR8 IC50", "setting": "hERG channel", "value": ">10000"}, {"measurement": "hERG IC20/TLR9 IC50", "setting": "hERG channel", "value": ">204"}]}, {"smiles": "[2H]c1ccc2c(N3C[C@H](CN4CCN(c5nc(C)cc(N6C[C@@H](N)[C@H](OC)C6)n5)CC4)O[C@H](C)C3)ccc(C#N)c2n1", "note": "[Example 144, 5-[(2S,6R)-2-[[4-[4-[(3R,4R)-3-amino-4-methoxy-pyrrolidin-1-yl]-6-methyl-pyrimidin-2-yl]piperazin-1-yl]methyl]-6-methyl-morpholin-4-yl]-2-deuterio-quinoline-8-carbonitrile]", "values": [{"measurement": "IC20", "setting": "hERG channel", "value": "> 10", "unit": "µM"}, {"measurement": "IC50", "setting": "hERG channel", "value": "> 20", "unit": "µM"}, {"measurement": "hERG IC20/TLR7 IC50", "setting": "hERG channel", "value": ">909"}, {"measurement": "hERG IC20/TLR8 IC50", "setting": "hERG channel", "value": ">10000"}, {"measurement": "hERG IC20/TLR9 IC50", "setting": "hERG channel", "value": ">322"}]}]}
